In patent publication US9926319B2, “Pyridyl piperidines” (MERCK PATENT GMBH, priority 2014, dated 2018):

What was measured:
[1] = CLint (intrinsic clearance) assay, microsomal incubation; format: in vitro ADME, Human; conditions: NADPH, 37° C., up to 30 min; for microsomal CLint at 0.8 μM: human, liver microsomes, pH 7.4, human liver microsomes 0.5 mg/mL protein; for Human Clint: human liver microsomes 0.5 mg/mL protein
Description: 2. CLint (Intrinsic Clearance) Assay
A Tecan Genesis workstation (RWS ASY 150/8) was used to perform the microsomal incubations. Analysis was carried out using a Waters ACQUITY UPLC system coupled to an ABSciex API3000 mass spectrometer. Data analysis was performed using Assay Explorer (Symyx).
0.1 M potassium phosphate buffer pH 7.4 containing 1 mM MgCl2
15 mM NADPH in phosphate buffer
5.0 mg protein/mL liver microsomes in phosphate buffer
Each experiment consists of 12 test and 2 reference compounds. The reference compounds are incubated as a cocktail.
Dilution of test compounds was done in 2 steps from a 10 mM DMSO stock solution. First 4 μL stock solution was added to 196 μL of 20% DMSO in potassium phosphate buffer pH 7.4. In a second step 10 μL of the first dilution were added to […] potassium phosphate buffer and 100 μL internal standard solution to a final concentration of 0.8 μM. 100 μL of the final compound dilution were aliquoted into a 96 deep well plate. 12.5 μL liver microsomes were added to each well (0.5 mg/mL final protein concentration) and the samples preincubated for 5 min at 37° C. and 800 rpm agitation.
After the preincubation, 250 μL cold acetonitrile were added to the 0 min samples to prevent a reaction. Following this, 12.5 μL NADPH solution were added to all wells to start the incubation, with the exception of the 0 min and 30 min controls without cofactor, where the NADPH was substituted for phosphate buffer.
The incubations were stopped after 5, 10, 20 and 30 min by adding 250 μL cold acetonitrile to the individual wells.
The quenched samples were then centrifuged at 4000 g for 1 h at 4° C. 100 μL of the supernatant were transferred into 96 well plates for analysis.
The metabolic stability of each compound was determined by measurement of the change in LC-MS/MS peak area over time. Assay Explorer software was used to automatically calculate the slope k of the decline. The intrinsic clearance (CLint) of each compound was then calculated according to the formula: CLint(μL/min/mg protein)=k1000/protein concentration.
CLint is shown for each compound in Table 3 below.

Wnt pathway = assay: Cellular assay for Wnt pathway activity (luciferase reporter cell based assay); conditions: 24 h, HEK293 luciferase reporter cell line (ER-DSH, TCF dependent promoter), induced with estrogen (1 μM), read-out: 7df3 IC50

Compound	microsomal CLint at 0.8 μM [1] [µL/min/mg]	IC50 (Wnt pathway) [nM]	Human Clint [1] [µL/min/mg]
O=C1NCC2(CCN(c3c(Cl)cncc3-c3ccc(-c4cnn([C@H]5CCC[C@@H]5O)c4)cc3)CC2)O1 (racemic) [Example 57, 8-(3-Chloro-5-{4-[1-((1S,2S)-2-hydroxy-cyclopentyl)-1H-pyrazol-4-yl]-phenyl}-pyridin-4-yl)-1-oxa-3,8-diaza-spiro[4.5]decan-2-one]	32	18	–
CC1NC(=O)OC12CCN(c1c(Cl)cncc1-c1ccc3c(c1)CS(=O)(=O)N3C)CC2 (racemic) [Example 96, 8-[3-Chloro-5-(1-methyl-2,2-dioxo-2,3-dihydro-1H-2l6-benzo[c]isothiazol-5-yl)-pyridin-4-yl]-4-methyl-1-oxa-3,8-diaza-spiro[4.5]decan-2-one]	39	4.2	–
Nc1n[nH]c2cc(-c3cncc(Cl)c3N3CCC4(CCNC4=O)CC3)ccc12 [Example 7, 8-[3-(3-Amino-1H-indazol-6-yl)-5-chloro-pyridin-4-yl]-2,8-diaza-spiro[4.5]decan-1-one]	–	–	27
CNc1n[nH]c2cc(-c3cncc(Cl)c3N3CCC4(CCNC4=O)CC3)ccc12 [Example 34, 8-[3-Chloro-5-(3-methylamino-1H-indazol-6-yl)-pyridin-4-yl]-2,8-diaza-spiro[4.5]decan-1-one]	–	–	52
Cn1cc(-c2ccc(-c3cncc(C(F)(F)F)c3N3CCC4(CC3)CNC(=O)O4)cc2)cn1 [Example 35, 8-{3-[4-(1-Methyl-1H-pyrazol-4-yl)-phenyl]-5-trifluoromethyl-pyridin-4-yl}-1-oxa-3,8-diaza-spiro[4.5]decan-2-one]	< 10	–	–
CN1c2ccc(-c3cncc(Cl)c3N3CCC4(CC3)NC(=O)NC4=O)cc2CS1(=O)=O [Example 37, 8-[3-Chloro-5-(1-methyl-2,2-dioxo-2,3-dihydro-1H-2l6-benzo[c]isothiazol-5-yl)-pyridin-4-yl]-1,3,8-triaza-spiro[4.5]decane-2,4-dione]	–	–	11
CC1=NNC(=O)C12CCN(c1c(Cl)cncc1-c1ccc3c(c1)CS(=O)(=O)N3C)CC2 [Example 41, 8-[3-Chloro-5-(1-methyl-2,2-dioxo-2,3-dihydro-1H-2l6-benzo[c]isothiazol-5-yl)-pyridin-4-yl]-4-methyl-2,3,8-triaza-spiro[4.5]dec-3-en-1-one]	–	–	85
CC1=NC2(CCN(c3c(Cl)cncc3-c3ccc4c(c3)CS(=O)(=O)N4C)CC2)C(=O)N1 [Example 46, 8-[3-Chloro-5-(1-methyl-2,2-dioxo-2,3-dihydro-1H-2l6-benzo[c]isothiazol-5-yl)-pyridin-4-yl]-2-methyl-1,3,8-triaza-spiro[4.5]dec-1-en-4-one]	–	–	16
CN1c2ccc(-c3cncc(Cl)c3N3CCC4(CC3)C(=O)NN=C4C(F)(F)F)cc2CS1(=O)=O [Example 58, 8-[3-Chloro-5-(1-methyl-2,2-dioxo-2,3-dihydro-1H-2l6-benzo[c]isothiazol-5-yl)-pyridin-4-yl]-4-trifluoromethyl-2,3,8-triaza-spiro[4.5]dec-3-en-1-one]	–	–	89
CN1c2ccc(-c3cncc(F)c3N3CCC4(CC3)CNC(=O)O4)cc2CS1(=O)=O [Example 80, 8-[3-Fluoro-5-(1-methyl-2,2-dioxo-2,3-dihydro-1H-2l6-benzo[c]isothiazol-5-yl)-pyridin-4-yl]-1-oxa-3,8-diaza-spiro[4.5]decan-2-one]	–	–	18

Next, values leading:

microsomal CLint at 0.8 μM [1] [µL/min/mg]	IC50 (Wnt pathway) [nM]	Human Clint [1] [µL/min/mg]	Compound
44	7.6	–	O=C1NCCC12CCN(c1c(Cl)cncc1-c1ccc(-c3cnn([C@H]4CCC[C@@H]4O)c3)cc1)CC2 (racemic) [Example 56, 8-(3-Chloro-5-{4-[1-((1S,2S)-2-hydroxy-cyclopentyl)-1H-pyrazol-4-yl]-phenyl}-pyridin-4-yl)-2,8-diaza-spiro[4.5]decan-1-one]
26	42	–	CC1NC(=O)OC12CCN(c1c(Cl)cncc1-c1ccc(-c3cnn(C)c3)cc1)CC2 (racemic) [Example 97, 8-{3-Chloro-5-[4-(1-methyl-1H-pyrazol-4-yl)-phenyl]-pyridin-4-yl}-4-methyl-1-oxa-3,8-diaza-spiro[4.5]decan-2-one]
–	–	40	O=C1NCCC12CCN(c1c(Cl)cncc1-c1ccc(-c3cnn(CCO)c3)cc1)CC2 [Example 5, 8-(3-Chloro-5-{4-[1-(2-hydroxy-ethyl)-1H-pyrazol-4-yl]-phenyl}-pyridin-4-yl)-2,8-diaza-spiro[4.5]decan-1-one]
–	–	40	Cn1cc(-c2ccc(-c3cncc(Cl)c3N3CCC4(CC3)CNC(=O)O4)cc2)cn1 [Example 9, 8-{3-Chloro-5-[4-(1-methyl-1H-pyrazol-4-yl)-phenyl]-pyridin-4-yl}-1-oxa-3,8-diaza-spiro[4.5]decan-2-one]
< 10	–	–	Cn1cc(-c2ccc(-c3cncc(Cl)c3N3CCC4(CC3)NC(=O)NC4=O)cc2)cn1 [Example 13, 8-{3-Chloro-5-[4-(1-methyl-1H-pyrazol-4-yl)-phenyl]-pyridin-4-yl}-1,3,8-triaza-spiro[4.5]decane-2,4-dione]
–	–	13	Cc1nc(-c2ccc(-c3cncc(Cl)c3N3CCC4(CCNC4=O)CC3)cc2)cn1C [Example 18, 8-{3-Chloro-5-[4-(1,2-dimethyl-1H-imidazol-4-yl)-phenyl]-pyridin-4-yl}-2,8-diaza-spiro[4.5]decan-1-one]
–	–	78	Cn1nc(N)c2ccc(-c3cncc(Cl)c3N3CCC4(CCNC4=O)CC3)cc21 [Example 24, 8-[3-(3-Amino-1-methyl-1H-indazol-6-yl)-5-chloro-pyridin-4-yl]-2,8-diaza-spiro[4.5]decan-1-one]
–	–	81	Cn1cc(-c2ccc(-c3cncc(C(F)(F)F)c3N3CCC4(CCNC4=O)CC3)cc2)cn1 [Example 45, 8-{3-[4-(1-Methyl-1H-pyrazol-4-yl)-phenyl]-5-trifluoromethyl-pyridin-4-yl}-2,8-diaza-spiro[4.5]decan-1-one]
–	–	23	CC(C)(O)Cn1cc(-c2ccc(-c3cncc(Cl)c3N3CCC4(CCNC4=O)CC3)cc2)cn1 [Example 47, 8-(3-Chloro-5-{4-[1-(2-hydroxy-2-methyl-propyl)-1H-pyrazol-4-yl]-phenyl}-pyridin-4-yl)-2,8-diaza-spiro[4.5]decan-1-one]
–	–	20	CN1C(=O)NC(=O)C12CCN(c1c(Cl)cncc1-c1ccc(-c3cnn(C)c3)cc1)CC2 [Example 49, 8-{3-Chloro-5-[4-(1-methyl-1H-pyrazol-4-yl)-phenyl]-pyridin-4-yl}-1-methyl-1,3,8-triaza-spiro[4.5]decane-2,4-dione]
–	41	–	Cn1ccc(-c2ccc(-c3cncc(Cl)c3N3CCC4(CCNC4=O)CC3)cc2)n1 [Example 67, 8-{3-Chloro-5-[4-(1-methyl-1H-pyrazol-3-yl)-phenyl]-pyridin-4-yl}-2,8-diaza-spiro[4.5]decan-1-one]
–	2.2	–	Cn1cc(-c2ccc(-c3cncc(Cl)c3N3CCC4(CC3)CC(=O)NC4=O)cc2)cn1 [Example 86, 8-{3-Chloro-5-[4-(1-methyl-1H-pyrazol-4-yl)-phenyl]-pyridin-4-yl}-2,8-diaza-spiro[4.5]decane-1,3-dione]
–	8.2	–	Cn1ncc2cc(-c3cncc(Cl)c3N3CCC4(CCNC4=O)CC3)ccc21 [Example 91, 8-[3-Chloro-5-(1-methyl-1H-indazol-5-yl)-pyridin-4-yl]-2,8-diaza-spiro[4.5]decan-1-one]
